# According to US7514443B2, “Substituted pyrazolo[1,5-a]pyrimidines as inhibitors of metabotropic glutamate receptors” (Hoffmann-La Roche Inc., priority 2003, dated 2009):
row,SMILES,melting point [°C]
1,"Cc1cc(-c2ncn3c(C(F)(F)F)cc(-c4ccc(Cl)c(C)c4)nc23)ccn1 [Example 8.21, 2-(4-Chloro-3-methyl-phenyl)-8-(2-methyl-pyridin-4-yl)-4-trifluoromethyl-imidazo[1,5-a]pyrimidine]",246
2,"CCOc1cc(-c2cc(C(F)(F)F)n3ncc(-c4ccnc(C)c4)c3n2)ccc1C(F)(F)F [Example 4.49, 5-(3-Ethoxy-4-trifluoromethyl-phenyl)-3-(2-methyl-pyridin-4-yl)-7-trifluoromethyl-pyrazolo[1,5-a]pyrimidine]",226
3,"Cc1cc(-c2cnn3c(C(F)(F)F)cc(-c4ccc(Cl)c(Cl)c4)nc23)ccn1 [Example 4.32, 5-(3,4-Dichloro-phenyl)-3-(2-methyl-pyridin-4-yl)-7-trifluoromethyl-pyrazolo[1,5-a]pyrimidine]",275
4,"Cc1cc(-c2cnn3c(C(F)(F)F)cc(-c4ccc(C)c(C(F)(F)F)c4)nc23)cc(C)n1 [Example 4.28, 5-(4-Methyl-3-trifluoromethyl-phenyl)-3-(2,6-dimethyl-pyridin-4-yl)-7-trifluoromethyl-pyrazolo[1,5-a]pyrimidine]",258
5,"Cc1cc(-c2cnn3c(C(F)(F)F)cc(-c4ccc(Cl)c(Cl)c4)nc23)cc(C)n1 [Example 4.22, 5-(3,4-Dichloro-phenyl)-3-(2,6-dimethyl-pyridin-4-yl)-7-trifluoromethyl-pyrazolo[1,5-a]pyrimidine]",281
6,"Cc1cc(-c2cc(C(F)(F)F)n3ncc(-c4ccncc4)c3n2)ccc1Cl [Example 4.4, 5-(4-Chloro-3-methyl-phenyl)-3-pyridin-4-yl-7-trifluoromethyl-pyrazolo[1,5-a]pyrimidine]",247
7,"Cc1cc(-c2cnn3c(C(F)F)cc(-c4ccc(C(F)(F)F)cc4)nc23)ccn1 [Example 9.2, 7-Difluoromethyl-3-(2-methyl-pyridin-4-yl)-5-(4-trifluoromethyl-phenyl)-pyrazolo[1,5-a]pyrimidine]",213
8,"CCOc1ccc(-c2cc(C(F)(F)F)n3ncc(-c4cccnc4)c3n2)cc1C(F)(F)F [Example 4.40, 5-(4-Ethoxy-3-trifluoromethyl-phenyl)-3-pyridin-3-yl-7-trifluoromethyl-pyrazolo[1,5-a]pyrimidine]",178
9,"Fc1cc(-c2cc(C(F)(F)F)n3ncc(-c4cccnc4)c3n2)ccc1C(F)(F)F [Example 4.18, 5-(3-Fluoro-4-trifluoromethyl-phenyl)-3-pyridin-3-yl-7-trifluoromethyl-pyrazolo[1,5-a]pyrimidine]",162
10,"N#Cc1cnn2c(C(F)(F)F)cc(-c3ccncc3)nc12 [Example 1.22, 5-Pyridin-4-yl-7-trifluoromethyl-pyrazolo[1,5-a]pyrimidine-3-carbonitrile]",233
11,"N#Cc1cnn2c(C(F)(F)F)cc(-c3ccccn3)nc12 [Example 1.20, 5-Pyridin-2-yl-7-trifluoromethyl-pyrazolo[1,5-a]pyrimidine-3-carbonitrile]",208
12,"CCOc1cc(-c2cc(C(F)(F)F)n3ncc(-c4ccncc4)c3n2)ccc1C(F)(F)F [Example 4.47, 5-(3-Ethoxy-4-trifluoromethyl-phenyl)-3-pyridin-4-yl-7-trifluoromethyl-pyrazolo[1,5-a]pyrimidine]",251
13,"Cc1cc(-c2cc(C(F)(F)F)n3cnc(C#N)c3n2)ccc1C(F)(F)F [Example 5.23, 2-(3-Methyl-4-trifluoromethyl-phenyl)-4-trifluoromethyl-imidazo[1,5-a]pyrimidine-8-carbonitrile]",217
14,"N#Cc1cnn2c(C(F)(F)F)cc(-c3ccccc3F)nc12 [Example 1.11, 5-(2-Fluoro-phenyl)-7-trifluoromethyl-pyrazolo[1,5-a]pyrimidine-3-carbonitrile]",165
15,"Cc1cc(-c2cc(C(F)(F)F)n3cnc(-c4cccnc4)c3n2)ccc1C(F)(F)F [Example 8.8, 2-(3-Methyl-4-trifluoromethyl-phenyl)-8-pyridin-3-yl-4-trifluoromethyl-imidazo[1,5-a]pyrimidine]",173
16,"N#Cc1cnn2c(C(F)(F)F)cc(-c3ccc(F)cc3F)nc12 [Example 1.10, 5-(2,4-Difluoro-phenyl)-7-trifluoromethyl-pyrazolo[1,5-a]pyrimidine-3-carbonitrile]",149
17,"Cc1cccc(-c2cc(C(F)(F)F)n3ncc(C#N)c3n2)c1 [Example 1.5, 5-(3-Methyl-phenyl)-7-trifluoromethyl-pyrazolo[1,5-a]pyrimidine-3-carbonitrile]",202
18,"Cc1cc(-c2cnn3c(C(F)(F)F)cc(-c4ccc(C(F)(F)F)c(C(F)(F)F)c4)nc23)ccn1 [Example 4.54, 5-(3,4-Bis-trifluoromethyl-phenyl)-3-(2-methyl-pyridin-4-yl)-7-trifluoromethyl-pyrazolo[1,5-a]pyrimidine]",223
19,"N#Cc1cnn2c(C(F)(F)F)cc(-c3cccc(Cl)c3)nc12 [Example 1.1, 5-(3-Chloro-phenyl)-7-trifluoromethyl-pyrazolo[1,5-a]pyrimidine-3-carbonitrile]",204
20,"N#Cc1cnn2c(C(F)(F)F)cc(-c3ccc(Cl)c(Cl)c3)nc12 [Example 1.16, 5-(3,4-Dichloro-phenyl)-7-trifluoromethyl-pyrazolo[1,5-a]pyrimidine-3-carbonitrile]",206
21,"FC(F)(F)c1cc(-c2ccc(Br)cc2)nc2c(-c3ccncc3)cnn12 [Example 4.55, 5-(4-Bromo-phenyl)-3-pyridin-4-yl-7-trifluoromethyl-pyrazolo[1,5-a]pyrimidine]",289
22,"Cc1nn2c(C(F)(F)F)cc(-c3ccc(Cl)cc3)nc2c1C#N [Example 2.3, 5-(4-Chloro-phenyl)-2-methyl-7-trifluoromethyl-pyrazolo[1,5-a]pyrimidine-3-carbonitrile]",238
23,"Cc1cc(-c2cnn3c(C(F)(F)F)cc(-c4ccc(C(F)(F)F)c(OCC(F)(F)F)c4)nc23)ccn1 [Example 4.52, 3-(2-Methyl-pyridin-4-yl)-5-[3-(2,2,2-trifluoro-ethoxy)-4-trifluoromethyl-phenyl]-7-trifluoromethyl-pyrazolo[1,5-a]pyrimidine]",201
24,"FC(F)(F)c1cc(-c2ccc(Cl)cc2)nc2c(-c3ccncc3)cnn12 [Example 4.2, 5-(4-Chloro-phenyl)-3-pyridin-4-yl-7-trifluoromethyl-pyrazolo[1,5-a]pyrimidine]",274
25,"N#Cc1ncn2c(C(F)(F)F)cc(-c3ccc(C(F)(F)F)cc3)nc12 [Example 5.10, 2-(4-Trifluoromethyl-phenyl)-4-trifluoromethyl-imidazo[1,5-a]pyrimidine-8-carbonitrile]",236
26,"Cc1cc(-c2cnn3c(C(F)(F)F)cc(-c4ccc(C(F)(F)F)c(OCC(F)(F)F)c4)nc23)cc(C)n1 [Example 4.51, 3-(2,6-Dimethyl-pyridin-4-yl)-5-[3-(2,2,2-trifluoro-ethoxy)-4-trifluoromethyl-phenyl]-7-trifluoromethyl-pyrazolo[1,5-a]pyrimidine]",245
27,"Cc1cccc(-c2cc(C(F)(F)F)n3cnc(C#N)c3n2)c1 [Example 5.9, 2-(3-Methyl-phenyl)-4-trifluoromethyl-imidazo[1,5-a]pyrimidine-8-carbonitrile]",202
